This is an account of results in paper PMC2330087, “Mechanistic Insights into a Novel Exporter-Importer System of Mycobacterium tuberculosis Unravel Its Role in Trafficking of Iron” (PLoS ONE, 2008).

The experiment has as its target T1, rIrtA (Rv1348) in LP-48 liposomes (Mycobacterium tuberculosis, UniProt P9WQJ9).
T1 construct: gene irtA

T1 sequence (P9WQJ9 whole entry): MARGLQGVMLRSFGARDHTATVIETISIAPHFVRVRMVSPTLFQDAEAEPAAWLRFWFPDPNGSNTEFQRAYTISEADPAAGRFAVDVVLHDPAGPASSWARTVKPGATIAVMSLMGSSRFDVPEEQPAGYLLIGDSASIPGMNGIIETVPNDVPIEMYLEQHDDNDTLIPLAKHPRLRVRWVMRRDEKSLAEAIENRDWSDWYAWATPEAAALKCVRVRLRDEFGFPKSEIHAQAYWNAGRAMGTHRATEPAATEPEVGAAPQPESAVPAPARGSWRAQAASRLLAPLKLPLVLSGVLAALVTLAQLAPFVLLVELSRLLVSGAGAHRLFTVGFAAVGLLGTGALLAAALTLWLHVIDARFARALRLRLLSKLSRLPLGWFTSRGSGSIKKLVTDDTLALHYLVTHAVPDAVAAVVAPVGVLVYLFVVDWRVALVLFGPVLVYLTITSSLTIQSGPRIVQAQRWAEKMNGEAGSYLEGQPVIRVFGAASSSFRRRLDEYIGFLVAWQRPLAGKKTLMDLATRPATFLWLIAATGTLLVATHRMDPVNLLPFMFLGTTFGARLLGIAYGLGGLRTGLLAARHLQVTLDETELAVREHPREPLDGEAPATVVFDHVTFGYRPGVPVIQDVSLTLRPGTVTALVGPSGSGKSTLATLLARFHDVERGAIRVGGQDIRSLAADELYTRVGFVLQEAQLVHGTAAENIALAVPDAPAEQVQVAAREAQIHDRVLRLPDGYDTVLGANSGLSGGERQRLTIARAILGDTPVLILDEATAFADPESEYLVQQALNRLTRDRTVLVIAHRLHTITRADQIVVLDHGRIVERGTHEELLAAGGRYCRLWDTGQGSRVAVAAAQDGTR

Take `Nc1ncnc2c1ncn2[C@@H]1O[C@H](COP(=O)(O)OP(=O)(O)OP(=O)(O)O)[C@@H](O)[C@H]1O` [ATP]: the “inorganic phosphate release in proteoliposomes” value is given as “the ATP hydrolysis by rIrtA was not seen in the absence of cMyco”.
